Test [1] addresses T1, Heat shock factor protein 1 (Mus musculus, UniProt P38532).
T1 sequence (P38532 whole entry): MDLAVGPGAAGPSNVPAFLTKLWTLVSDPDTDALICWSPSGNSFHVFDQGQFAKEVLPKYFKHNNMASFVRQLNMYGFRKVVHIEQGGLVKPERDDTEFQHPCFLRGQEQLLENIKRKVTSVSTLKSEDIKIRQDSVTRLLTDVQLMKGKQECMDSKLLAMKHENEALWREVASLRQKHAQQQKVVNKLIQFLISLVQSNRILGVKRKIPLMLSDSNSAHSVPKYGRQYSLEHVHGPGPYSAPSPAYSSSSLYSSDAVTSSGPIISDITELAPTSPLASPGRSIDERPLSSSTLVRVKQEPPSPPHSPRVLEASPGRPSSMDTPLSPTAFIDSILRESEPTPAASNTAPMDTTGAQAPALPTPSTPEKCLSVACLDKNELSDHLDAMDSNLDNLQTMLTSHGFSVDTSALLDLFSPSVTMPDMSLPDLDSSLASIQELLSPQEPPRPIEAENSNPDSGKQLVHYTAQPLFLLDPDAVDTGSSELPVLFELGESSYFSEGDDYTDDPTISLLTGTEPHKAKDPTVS
As to the kind of experiment: enhancement of HSF1-driven luciferase signal – cell-based, NIH3T3, luminescence, dose retest, confirmation (AID 435004).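 Also: stress induced by proteasome inhibitor MG132 added 30 min after compound; luciferase reporter driven by HSF1 response element in NIH3T3 cells; actives raise luminescence as potentiators of the MG132 stress response.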 The class given is functional.

Another test concerns the target T2, Streptokinase A (Streptococcus pyogenes serotype M1, UniProt P10520).
T2 sequence (P10520 whole entry): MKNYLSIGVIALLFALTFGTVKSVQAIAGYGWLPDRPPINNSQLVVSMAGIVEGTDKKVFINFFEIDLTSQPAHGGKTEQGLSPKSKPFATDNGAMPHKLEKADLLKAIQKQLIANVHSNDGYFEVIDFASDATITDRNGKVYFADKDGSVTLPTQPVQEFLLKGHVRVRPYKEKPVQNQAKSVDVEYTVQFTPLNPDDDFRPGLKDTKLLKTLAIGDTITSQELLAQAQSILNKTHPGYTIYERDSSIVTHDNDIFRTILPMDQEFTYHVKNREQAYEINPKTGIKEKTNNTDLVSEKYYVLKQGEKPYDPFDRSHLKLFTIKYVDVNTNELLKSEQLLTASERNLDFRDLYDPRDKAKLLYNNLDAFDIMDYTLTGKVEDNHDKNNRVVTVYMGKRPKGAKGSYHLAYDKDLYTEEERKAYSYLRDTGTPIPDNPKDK
As to the kind of experiment: viability-normalized secreted streptokinase activity reduction – plasminogen activation absorbance, OD405, dose response (AID 1914).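 Also: secreted streptokinase activity via plasminogen activation per viability signal from cell pellet.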 The class given is functional, Streptococcus pyogenes M1 GAS.

The target of test [2] is Photoreceptor-specific nuclear receptor (Homo sapiens, UniProt Q9Y5X4). The class given is functional.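 Also: potency for compounds that break the NR2E3 corepressor complex and count as activators.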
Test [3] has as its target Peroxisome proliferator-activated receptor gamma/Nuclear receptor corepressor 2 (Homo sapiens, UniProt P37231+Q9Y618). The class given is functional.
Test [4] has as its target T3, Alkaline phosphatase, tissue-nonspecific isozyme (Homo sapiens, UniProt P05186).
T3 sequence (P05186 whole entry): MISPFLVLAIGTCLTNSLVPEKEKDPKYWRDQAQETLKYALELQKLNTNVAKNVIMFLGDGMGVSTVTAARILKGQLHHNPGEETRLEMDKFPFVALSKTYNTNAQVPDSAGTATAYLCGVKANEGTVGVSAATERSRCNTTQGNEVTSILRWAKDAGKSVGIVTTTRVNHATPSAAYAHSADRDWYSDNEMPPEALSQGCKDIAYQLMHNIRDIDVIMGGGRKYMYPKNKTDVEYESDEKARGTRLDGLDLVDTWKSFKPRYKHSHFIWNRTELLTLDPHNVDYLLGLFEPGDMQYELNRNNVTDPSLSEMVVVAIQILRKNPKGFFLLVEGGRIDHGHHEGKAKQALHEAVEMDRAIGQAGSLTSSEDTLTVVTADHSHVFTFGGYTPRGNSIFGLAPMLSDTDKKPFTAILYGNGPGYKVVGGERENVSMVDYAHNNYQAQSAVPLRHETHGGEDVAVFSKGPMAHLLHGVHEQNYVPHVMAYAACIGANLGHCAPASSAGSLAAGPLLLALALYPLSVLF

Test [5] has as its target Peroxisome proliferator-activated receptor gamma/Nuclear receptor coactivator 3 (Homo sapiens, UniProt P37231). Kind of test: TR-FRET dose response biochemical High Throughput Screening assay for agonists of the steroid receptor coactivator 3 (SRC-3) recruitment by the peroxisome proliferator-activated receptor gamma (PPAR gamma): non-selective agonists. [Related pubchem assays: 1301 (Confirmation screen.), 1048 (Primary screen.)]. The class given is functional. In general terms: Time-resolved FRET reads energy transfer from a long-lived donor to a nearby acceptor.

For test [6], the target named is Peroxisome proliferator-activated receptor gamma/Nuclear receptor coactivator 2 (Homo sapiens, UniProt P37231). Kind of test: TR-FRET dose response biochemical High Throughput Screening assay for agonists of the steroid receptor coactivator 2 (SRC-2) recruitment by the peroxisome proliferator-activated receptor gamma (PPAR gamma): non-selective agonists. [Related pubchem assays: 1297, 1032 ]. The class given is functional.

The target in test [7] is Peroxisome proliferator-activated receptor gamma/Nuclear receptor coactivator 1 (Homo sapiens, UniProt P37231). As to the kind of experiment: TR-FRET dose response biochemical High Throughput Screening assay for agonists of the steroid receptor coactivator 1 (SRC-1) recruitment by the peroxisome proliferator-activated receptor gamma (PPAR gamma): non-selective agonists. [Related pubchem assays (depositor defined):AID1300, AID1808, AID504735, AID631]. In kind it is protein assay.

Test [8] in a line: Luminescence Cell-Based Dose Response to Identify Activators of 5'UTR Stem-Loop Driven Prion Protein mRNA Translation in H4-C Neuroglioblastoma Cells. [Related pubchem assays: 1829 (Project Summary), 1814 (Primary HTS)]. In kind it is functional.
A further test deals with Cytochrome P450 2D6 (Homo sapiens, UniProt P10635).
Test [9] is described as follows: Luminescence Cell-Based Dose Response to Identify Activators of Luciferase Translation or Activity in H4-C Neuroglioblastoma Cells. [Related pubchem assays: 1829 (Project Summary), 1814 (Primary HTS)]. In kind it is functional.
Test [10] is described as follows: Luminescence Cell-Based Dose Confirmation to Identify Activators of 5'UTR Stem-Loop Driven Alpha-Synuclein mRNA Translation in H4 Neuroglioblastoma Cells. [Related pubchem assays: 1829 (Project Summary), 1814 (Primary HTS)]. In kind it is functional.
Test [11] is described as follows: Luminescence Cell-Based Dose Response HTS to Identify Activators of Luciferase Translation or Activity in H4 […] Cells. [Related pubchem assays: 1829 (Project Summary), 1814 (Primary HTS)]. In kind it is functional.
Test [12] is described as follows: Luminescence Cell-Based Dose Retest to Confirm Inhibitors of Cancer Stem Cells. [Related pubchem assays (depositor defined):AID2717, AID2721]. In kind it is functional. The following applies: Homo sapiens.
The next test concerns H4. Kind of test: Luminescence Cell-Based Dose Response HTS to Identify Activators of 5'UTR Stem-Loop Driven Prion Protein mRNA Translation in H4 Neuroglioblastoma Cells. [Related pubchem assays: 1829 (Project Summary), 1814 (Primary HTS)]. The class given is functional. Particulars: Homo sapiens.
Another test deals with T4, Hexokinase HKDC1 (Homo sapiens, UniProt Q2TB90).
T4 sequence (Q2TB90 whole entry): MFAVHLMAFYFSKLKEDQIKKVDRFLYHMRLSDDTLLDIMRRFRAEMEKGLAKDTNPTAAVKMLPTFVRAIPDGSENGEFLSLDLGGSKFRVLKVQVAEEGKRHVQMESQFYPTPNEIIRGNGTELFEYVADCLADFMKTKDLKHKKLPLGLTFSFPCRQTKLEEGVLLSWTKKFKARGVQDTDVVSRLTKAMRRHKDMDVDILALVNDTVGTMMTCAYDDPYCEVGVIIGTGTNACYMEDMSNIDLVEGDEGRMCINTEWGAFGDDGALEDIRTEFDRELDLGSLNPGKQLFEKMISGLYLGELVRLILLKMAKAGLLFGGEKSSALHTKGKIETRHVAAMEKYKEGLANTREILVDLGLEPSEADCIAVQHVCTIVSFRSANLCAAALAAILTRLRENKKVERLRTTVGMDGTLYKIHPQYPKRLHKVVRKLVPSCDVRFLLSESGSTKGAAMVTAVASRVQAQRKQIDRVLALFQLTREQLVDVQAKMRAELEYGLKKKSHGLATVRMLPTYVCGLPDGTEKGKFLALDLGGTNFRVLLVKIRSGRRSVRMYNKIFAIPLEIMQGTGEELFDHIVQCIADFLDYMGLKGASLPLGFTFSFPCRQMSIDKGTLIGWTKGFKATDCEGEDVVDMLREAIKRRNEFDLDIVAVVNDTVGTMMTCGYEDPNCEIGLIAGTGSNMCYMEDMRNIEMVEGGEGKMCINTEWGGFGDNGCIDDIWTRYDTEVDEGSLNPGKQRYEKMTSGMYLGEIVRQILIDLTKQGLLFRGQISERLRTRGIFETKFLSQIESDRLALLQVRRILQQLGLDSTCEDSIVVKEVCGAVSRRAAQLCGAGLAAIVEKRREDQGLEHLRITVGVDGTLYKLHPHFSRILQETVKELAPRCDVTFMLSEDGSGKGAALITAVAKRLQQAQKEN
As to the kind of experiment: inhibition of HKDC1 glucose phosphorylation – biochemical, W721R variant, dose response (AID 504729). In kind it is functional.

Test [13] can be described thus: alpha-synuclein stem-loop luciferase translation blockers – H4 neuroglioma cells, luminescence, confirmation (AID 1988). In kind it is functional, cell-based.
Test [14] is described as follows: Luminescence Cell-Based Dose Response HTS to Identify Inhibitors of 5'UTR Stem-Loop Driven Prion Protein mRNA Translation in H4 Neuroglioblastoma Cells. [Related pubchem assays: 1827 (Project Summary), 1813 (Primary HTS)]. The class given is functional.
Test [15] is described as follows: luciferase reporter signal suppression in cells – H4 neuroglioma cells, luminescence, dose response (AID 1990). The class given is functional, cell-based. (In general: A reporter such as luciferase makes a cellular process visible.)
Test [16] has as its target Potassium voltage-gated channel subfamily KQT member 2 (Rattus norvegicus, UniProt O88943, W236L). Kind of test: potentiation of rat KCNQ2 current – cell-based, automated electrophysiology, mechanism study for KCNQ2 potentiator project, dose response (AID 2603). In kind it is functional.

The structures appear in SMILES notation. The source made the active and inactive calls.

Usually EC50 stands for the midpoint of the concentration-response curve. In general, IC50 refers to the midpoint of a concentration-inhibition curve. A word on the AC50: it is the midpoint of the concentration-response curve, whichever way the signal moves.

Chain of Potassium voltage-gated channel subfamily KQT member 2 (O88943 whole entry W236L): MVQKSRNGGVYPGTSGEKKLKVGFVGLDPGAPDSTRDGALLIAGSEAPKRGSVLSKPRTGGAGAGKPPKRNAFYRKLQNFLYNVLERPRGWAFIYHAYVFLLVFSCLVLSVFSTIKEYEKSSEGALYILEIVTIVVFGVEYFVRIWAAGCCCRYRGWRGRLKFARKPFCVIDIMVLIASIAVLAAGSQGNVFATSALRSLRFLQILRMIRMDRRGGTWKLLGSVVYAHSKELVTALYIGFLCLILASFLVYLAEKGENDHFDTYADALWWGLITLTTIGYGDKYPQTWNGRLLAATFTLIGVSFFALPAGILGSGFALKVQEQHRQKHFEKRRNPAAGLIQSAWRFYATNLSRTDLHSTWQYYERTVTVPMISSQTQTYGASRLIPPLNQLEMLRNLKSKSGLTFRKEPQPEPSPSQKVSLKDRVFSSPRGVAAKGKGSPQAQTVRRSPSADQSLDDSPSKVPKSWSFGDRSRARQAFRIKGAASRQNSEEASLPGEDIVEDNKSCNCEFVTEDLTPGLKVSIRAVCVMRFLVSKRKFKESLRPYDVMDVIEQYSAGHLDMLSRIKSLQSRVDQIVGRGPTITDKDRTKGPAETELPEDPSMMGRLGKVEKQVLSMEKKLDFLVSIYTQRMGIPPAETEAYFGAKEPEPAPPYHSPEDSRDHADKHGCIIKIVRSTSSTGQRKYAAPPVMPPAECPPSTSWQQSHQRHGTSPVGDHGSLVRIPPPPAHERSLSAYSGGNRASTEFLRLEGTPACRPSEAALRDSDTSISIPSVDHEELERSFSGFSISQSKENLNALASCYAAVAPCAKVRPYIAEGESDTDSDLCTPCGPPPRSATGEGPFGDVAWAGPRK
Chain of Peroxisome proliferator-activated receptor gamma/Nuclear receptor corepressor 2 (P37231 whole entry): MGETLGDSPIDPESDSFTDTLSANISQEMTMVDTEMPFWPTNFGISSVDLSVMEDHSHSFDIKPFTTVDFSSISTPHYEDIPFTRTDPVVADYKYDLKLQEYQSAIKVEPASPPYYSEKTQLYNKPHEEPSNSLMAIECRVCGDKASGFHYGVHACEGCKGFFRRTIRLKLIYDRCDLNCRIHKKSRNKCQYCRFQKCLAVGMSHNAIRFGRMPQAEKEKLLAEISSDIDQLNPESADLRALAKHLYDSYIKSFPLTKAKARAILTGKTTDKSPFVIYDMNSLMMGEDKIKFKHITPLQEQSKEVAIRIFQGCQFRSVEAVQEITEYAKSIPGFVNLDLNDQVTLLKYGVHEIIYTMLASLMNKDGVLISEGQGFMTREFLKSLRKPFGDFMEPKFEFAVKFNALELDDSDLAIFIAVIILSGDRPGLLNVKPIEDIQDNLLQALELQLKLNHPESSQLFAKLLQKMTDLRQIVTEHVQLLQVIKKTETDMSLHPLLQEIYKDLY
Chain of Peroxisome proliferator-activated receptor gamma/Nuclear receptor corepressor 2 (Q9Y618 whole entry): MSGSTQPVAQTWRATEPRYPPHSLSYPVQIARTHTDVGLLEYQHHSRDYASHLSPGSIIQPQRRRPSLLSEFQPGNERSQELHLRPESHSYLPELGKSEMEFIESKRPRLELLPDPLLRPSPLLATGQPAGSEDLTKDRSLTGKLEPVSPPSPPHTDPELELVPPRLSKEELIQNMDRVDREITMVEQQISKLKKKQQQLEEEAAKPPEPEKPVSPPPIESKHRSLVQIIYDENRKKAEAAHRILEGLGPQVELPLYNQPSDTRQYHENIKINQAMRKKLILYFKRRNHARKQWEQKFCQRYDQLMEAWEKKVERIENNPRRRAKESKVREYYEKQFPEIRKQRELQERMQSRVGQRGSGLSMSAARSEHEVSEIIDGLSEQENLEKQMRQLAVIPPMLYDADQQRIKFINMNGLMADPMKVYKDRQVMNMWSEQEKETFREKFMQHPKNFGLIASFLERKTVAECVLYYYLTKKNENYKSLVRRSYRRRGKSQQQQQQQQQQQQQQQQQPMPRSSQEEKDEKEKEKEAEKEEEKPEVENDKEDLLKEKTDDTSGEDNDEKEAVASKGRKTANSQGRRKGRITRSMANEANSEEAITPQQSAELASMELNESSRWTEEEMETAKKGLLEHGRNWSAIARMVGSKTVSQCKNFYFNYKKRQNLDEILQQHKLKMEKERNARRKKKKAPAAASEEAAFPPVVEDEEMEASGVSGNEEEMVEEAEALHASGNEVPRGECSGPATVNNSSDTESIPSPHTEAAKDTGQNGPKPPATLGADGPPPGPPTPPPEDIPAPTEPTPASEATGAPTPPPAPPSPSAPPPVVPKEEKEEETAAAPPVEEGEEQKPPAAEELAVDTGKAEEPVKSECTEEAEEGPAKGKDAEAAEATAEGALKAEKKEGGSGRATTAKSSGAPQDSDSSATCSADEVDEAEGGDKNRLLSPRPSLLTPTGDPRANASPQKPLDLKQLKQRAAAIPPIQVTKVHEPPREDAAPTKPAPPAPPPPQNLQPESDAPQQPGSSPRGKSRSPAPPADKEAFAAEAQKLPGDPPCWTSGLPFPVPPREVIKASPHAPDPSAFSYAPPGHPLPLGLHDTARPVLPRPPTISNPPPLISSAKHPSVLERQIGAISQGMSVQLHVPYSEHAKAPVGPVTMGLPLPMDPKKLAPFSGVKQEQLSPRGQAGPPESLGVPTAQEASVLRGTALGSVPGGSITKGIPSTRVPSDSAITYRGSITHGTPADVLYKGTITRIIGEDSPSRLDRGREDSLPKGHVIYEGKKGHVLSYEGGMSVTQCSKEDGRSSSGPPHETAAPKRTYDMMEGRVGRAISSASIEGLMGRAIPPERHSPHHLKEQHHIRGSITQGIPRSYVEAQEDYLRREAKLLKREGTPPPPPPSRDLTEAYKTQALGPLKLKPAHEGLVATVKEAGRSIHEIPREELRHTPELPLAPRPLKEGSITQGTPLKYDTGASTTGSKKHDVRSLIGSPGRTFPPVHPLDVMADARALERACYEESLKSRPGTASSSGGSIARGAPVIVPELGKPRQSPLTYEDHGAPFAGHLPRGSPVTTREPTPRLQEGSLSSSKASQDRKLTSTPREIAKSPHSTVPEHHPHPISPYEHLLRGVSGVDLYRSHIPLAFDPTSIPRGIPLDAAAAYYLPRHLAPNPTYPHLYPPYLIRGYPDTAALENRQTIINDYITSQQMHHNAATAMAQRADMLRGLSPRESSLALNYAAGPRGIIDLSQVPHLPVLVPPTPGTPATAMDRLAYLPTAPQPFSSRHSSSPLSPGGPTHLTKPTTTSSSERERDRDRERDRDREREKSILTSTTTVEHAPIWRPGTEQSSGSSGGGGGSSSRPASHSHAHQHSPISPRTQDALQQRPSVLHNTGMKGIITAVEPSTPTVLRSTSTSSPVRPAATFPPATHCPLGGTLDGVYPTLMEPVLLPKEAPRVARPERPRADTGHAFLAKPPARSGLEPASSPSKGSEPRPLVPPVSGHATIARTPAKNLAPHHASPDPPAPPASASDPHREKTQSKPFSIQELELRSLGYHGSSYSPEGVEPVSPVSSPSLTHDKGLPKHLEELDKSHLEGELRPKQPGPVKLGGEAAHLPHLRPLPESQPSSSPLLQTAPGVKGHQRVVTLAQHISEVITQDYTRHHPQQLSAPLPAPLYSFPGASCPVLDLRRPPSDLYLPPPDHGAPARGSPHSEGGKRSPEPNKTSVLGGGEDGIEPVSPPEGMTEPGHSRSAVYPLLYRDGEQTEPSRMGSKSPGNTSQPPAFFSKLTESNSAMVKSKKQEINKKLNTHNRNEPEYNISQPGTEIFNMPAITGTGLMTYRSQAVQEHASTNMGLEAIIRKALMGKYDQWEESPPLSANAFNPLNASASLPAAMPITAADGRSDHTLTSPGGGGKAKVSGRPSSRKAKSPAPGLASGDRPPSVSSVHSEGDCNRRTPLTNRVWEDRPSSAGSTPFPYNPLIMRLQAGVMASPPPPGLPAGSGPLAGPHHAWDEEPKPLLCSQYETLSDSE
Chain of Photoreceptor-specific nuclear receptor (Q9Y5X4 whole entry): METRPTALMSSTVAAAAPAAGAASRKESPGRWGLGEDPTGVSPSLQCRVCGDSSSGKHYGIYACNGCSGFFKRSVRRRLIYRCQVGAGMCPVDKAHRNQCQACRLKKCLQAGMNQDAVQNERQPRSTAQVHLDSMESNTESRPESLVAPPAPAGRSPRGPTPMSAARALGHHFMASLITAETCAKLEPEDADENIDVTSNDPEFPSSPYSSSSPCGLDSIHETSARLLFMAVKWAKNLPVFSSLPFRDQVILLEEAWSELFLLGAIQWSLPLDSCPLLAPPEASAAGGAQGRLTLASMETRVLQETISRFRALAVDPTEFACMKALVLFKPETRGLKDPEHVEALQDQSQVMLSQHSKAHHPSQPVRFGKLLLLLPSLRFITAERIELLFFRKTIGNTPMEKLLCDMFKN
Chain of Cytochrome P450 2D6 (P10635 whole entry): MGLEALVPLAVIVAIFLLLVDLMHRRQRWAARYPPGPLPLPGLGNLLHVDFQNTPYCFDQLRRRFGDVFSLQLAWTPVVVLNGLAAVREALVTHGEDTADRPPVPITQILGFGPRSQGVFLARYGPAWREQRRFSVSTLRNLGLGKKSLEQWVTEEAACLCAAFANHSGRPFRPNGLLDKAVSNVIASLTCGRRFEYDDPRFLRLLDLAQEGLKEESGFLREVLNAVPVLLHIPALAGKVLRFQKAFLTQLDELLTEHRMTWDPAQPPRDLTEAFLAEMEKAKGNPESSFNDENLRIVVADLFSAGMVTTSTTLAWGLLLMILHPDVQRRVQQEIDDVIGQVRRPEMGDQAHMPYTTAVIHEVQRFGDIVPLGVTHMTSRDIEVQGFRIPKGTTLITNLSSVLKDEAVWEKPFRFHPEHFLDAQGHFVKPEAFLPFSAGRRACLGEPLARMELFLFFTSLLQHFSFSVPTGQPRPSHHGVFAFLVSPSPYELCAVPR

On to `S=c1[nH]c(SCc2ccccc2)nc2ccccc12`, for which the EC50 in test [1] was 227 µM (active); at Streptokinase A it was > 150 µM (not active). Also, the results for the IC50 in test [2] and in test [3] were > 39.8 µM (not active) and 2.48 µM (active), respectively.

Consider `COc1ccc(NC(=O)CSc2nc3ccccc3c3nc4ccccc4n23)cc1`, for which, in [4], the EC50 is recorded as > 100 µM (not active).

Turning to `O=C(CSc1ncnc2c1oc1ccccc12)c1cccs1`, the results for the concentration for half-maximal inhibition (IC50) in [2] and in test [3] were > 39.8 µM (not active) and 15.3 µM (not active), respectively. For the same molecule, the EC50 is > 79.4 µM (not active) in test [5], > 8.82 µM (not active) in test [6] and > 26.5 µM (inactive) in test [7].

Turning to `Cc1sc(NC(=O)C2CCCCC2)c(C#N)c1-c1ccccc1`, the EC50 was 0.689 µM (active) in test [8]; 0.375 µM (active) in [9]; 0.174 µM (active) in [10]; < 0.1 µM (active) in test [11]; 7.76 µM (active) in the test on H4. Further, the concentration at half-maximal activity (AC50) at Cytochrome P450 2D6 is 7.08 µM (inconclusive); in test [12] it was 3.43 µM (active).

For the molecule `O=C(CSc1n[nH]c(-c2cccnc2)n1)Nc1ccc([N+](=O)[O-])cc1Br`, at Hexokinase HKDC1, the IC50 was 5.92 µM (active).

Take `O=C(NCCc1ccccc1)c1cnn2c(C(F)F)cc(C3CC3)nc12`: the EC50 in test [13], in test [14] and in test [15] was > 120 µM (not active) throughout. The IC50 at Hexokinase HKDC1 was 5.5 µM (active).

Turning to `C#CCn1/c(=N/C(=O)CSC(C)=O)sc2cc(F)ccc21`, in [16], the EC50 is 2.97 µM (active).

As for `Oc1c(Cl)cc(Cl)cc1/C=N/c1nccs1`, the EC50 in test [16] was 11.6 µM (active).

The values above are taken from ChEMBL document CHEMBL1201862, “PubChem BioAssay data set” (2004).
